# Literature values in patent publication US20080069871A1, “H[…] DETERRENT DELIVERY SYSTEM” (priority 2006, published 2008).
# Conditions: stated as reason for use as model drug
structure (smiles),measurement,value
"Cc1ncc([N+](=O)[O-])n1CCO [metronidazole, Metronidazole]",solubility in water and aqueous ethanol solutions,highly soluble
